Assay results: patent US9822099B2, “Triazole derivatives” (priority 2013, dated 2017)
Read-outs that look alike come from different tables or passages of the source. Marks after values point to notes of the source that are not given here.

Assays:
Uromyces appendiculatus = assay: Example F: in vivo preventive test on Uromyces appendiculatus (bean rust); conditions: bean plants, preventive spray, evaluated 11 days after inoculation
Method: (§1) The young plants of bean are treated by spraying the active ingredient prepared as described above. Control plants are treated only with an aqueous solution of acetone/Dimethyl sulfoxide/Tween®. After 24 hours, the plants are contaminated by spraying the leaves with an aqueous suspension of Uromyces appendiculatus spores.

Septoria tritici = assay: Example D: in vivo preventive test on Septoria tritici (leaf spot on wheat); conditions: wheat plants, preventive spray, evaluated 24 days after inoculation
Method: as §1, with “wheat” for “bean”, “Septoria tritici” for “Uromyces appendiculatus”

Sphaerotheca fuliginea = assay: Example E: in vivo preventive test on Sphaerotheca fuliginea (powdery mildew on cucurbits); conditions: gherkin plants, preventive spray, evaluated 15 days after inoculation
Method: as §1, with “gherkin” for “bean”, “Sphaerotheca fuliginea” for “Uromyces appendiculatus”

Puccinia recondita = assay: Example B: in vivo preventive test on Puccinia recondita (brown rust on wheat); conditions: wheat plants, preventive spray, evaluated 11 days after inoculation
Method: as §1, with “wheat” for “bean”, “Puccinia recondita” for “Uromyces appendiculatus”

[1] = method [a]: LC-MS at pH 2.7, 0.1% formic acid in water / acetonitrile gradient

Structure (SMILES)	LogP (pH 2.7)	LogP [1]	Eff. % (Sphaerotheca fuliginea; 100 ppm of active ingredient)	further results
OC(Cc1ccccc1F)(Cc1cc(F)ncc1Cl)Cn1cncn1 (racemic) [Example I-64]	2.46^[a]	–	–	Eff. % (Uromyces appendiculatus; 500 ppm of active ingredient): 94%; Eff. % (Septoria tritici; 500 ppm of active ingredient): 97%; Eff. % (Sphaerotheca fuliginea; 500 ppm of active ingredient): 100%; Eff. % (Puccinia recondita; 500 ppm of active ingredient): 83%
Cc1cc(C(O)(Cc2ccncc2Cl)Cn2cncn2)nn1C (racemic) [Example I-66]	0.84^[a]	–	–	Eff. % (Septoria tritici; 500 ppm of active ingredient): 92%; Eff. % (Sphaerotheca fuliginea; 500 ppm of active ingredient): 80%
COc1nccnc1CC(O)(Cn1cncn1)C1(Cl)CC1 (racemic) [Example I-72]	1.88^[a]	–	–	Eff. % (Uromyces appendiculatus; 500 ppm of active ingredient): 100%; Eff. % (Septoria tritici; 500 ppm of active ingredient): 80%; Eff. % (Sphaerotheca fuliginea; 500 ppm of active ingredient): 98%
OC(Cc1ccccc1F)(Cc1cc(Cl)ncc1F)Cn1cncn1 (racemic) [Example I-73]	2.34^[a]	–	–	Eff. % (Septoria tritici; 500 ppm of active ingredient): 100%; Eff. % (Sphaerotheca fuliginea; 500 ppm of active ingredient): 100%
OC(Cc1cccc(Cl)c1)(Cc1cc(Cl)ncc1F)Cn1cncn1 (racemic) [Example I-74]	2.69^[a]	–	–	Eff. % (Septoria tritici; 500 ppm of active ingredient): 100%; Eff. % (Sphaerotheca fuliginea; 500 ppm of active ingredient): 100%
OC(Cc1ccc(F)cc1)(Cc1ccncc1Cl)Cn1cncn1 (racemic) [Example I-75]	1.93^[a]	–	–	Eff. % (Septoria tritici; 500 ppm of active ingredient): 100%; Eff. % (Sphaerotheca fuliginea; 500 ppm of active ingredient): 100%; Eff. % (Puccinia recondita; 500 ppm of active ingredient): 81%
OC(Cc1ccncc1Cl)(Cn1cncn1)c1ccc2oc3ccccc3c2c1 (racemic) [Example I-80]	–	2.40^[a]	–	Eff. % (Uromyces appendiculatus; 500 ppm of active ingredient): 99%; Eff. % (Septoria tritici; 500 ppm of active ingredient): 100%; Eff. % (Sphaerotheca fuliginea; 500 ppm of active ingredient): 100%; Eff. % (Puccinia recondita; 500 ppm of active ingredient): 88%
Cc1cccc2cc(CC(O)(Cn3cncn3)C3(Cl)CC3)c(Cl)nc12 (racemic) [Example I-84]	3.53^[a]	–	–	Eff. % (Uromyces appendiculatus; 500 ppm of active ingredient): 100%; Eff. % (Septoria tritici; 100 ppm of active ingredient): 81%; Eff. % (Puccinia recondita; 500 ppm of active ingredient): 88%
OC(Cc1ccccc1F)(Cc1ccnc(Cl)c1F)Cn1cncn1 (racemic) [Example I-85]	1.73^[a]	–	–	Eff. % (Septoria tritici; 500 ppm of active ingredient): 78%; Eff. % (Sphaerotheca fuliginea; 500 ppm of active ingredient): 89%
OC(Cc1ccnc(Cl)c1F)(Cn1cncn1)c1ccc(Cl)nc1 (racemic) [Example I-86]	1.23^[a]	–	–	Eff. % (Septoria tritici; 500 ppm of active ingredient): 72%
OC(Cc1ccnc(Cl)c1F)(Cn1cncn1)C1(F)CC1 (racemic) [Example I-87]	1.23^[a]	–	–	Eff. % (Uromyces appendiculatus; 500 ppm of active ingredient): 78%; Eff. % (Septoria tritici; 500 ppm of active ingredient): 83%; Eff. % (Sphaerotheca fuliginea; 500 ppm of active ingredient): 72%; Eff. % (Puccinia recondita; 500 ppm of active ingredient): 89%
OC(Cc1cccc(Cl)c1)(Cc1ccnc(Cl)c1F)Cn1cncn1 (racemic) [Example I-88]	2.02^[a]	–	–	Eff. % (Septoria tritici; 500 ppm of active ingredient): 100%; Eff. % (Sphaerotheca fuliginea; 500 ppm of active ingredient): 98%; Eff. % (Puccinia recondita; 500 ppm of active ingredient): 89%
OC(Cc1cncc(Cl)n1)(Cn1cncn1)C1(Cl)CC1 (stereo not drawn) [Example I-9]	1.72^[a]	–	94%	–
Cc1cnc(CC(O)(Cn2cncn2)C2(Cl)CC2)c(Cl)n1 (stereo not drawn) [Example I-10]	2.05^[a]	–	75%	–
OC(Cc1cnccn1)(Cn1cncn1)C1(Cl)CC1 (stereo not drawn) [Example I-11]	1.13^[a]	–	79%	Eff. % (Uromyces appendiculatus; 100 ppm of active ingredient): 75%
OC(Cc1ccccc1F)(Cc1ccncc1Cl)Cn1cncn1 (stereo not drawn) [Example I-12]	1.96^[a]	–	100%	Eff. % (Septoria tritici; 100 ppm of active ingredient): 88%
OC(Cc1ccncc1Cl)(Cn1cncn1)c1ccc(Cl)nc1 (stereo not drawn) [Example I-13]	1.26^[a]	–	94%	Eff. % (Uromyces appendiculatus; 100 ppm of active ingredient): 95%
OC(Cc1ccncc1Cl)(Cn1cncn1)c1cccnc1Cl (stereo not drawn) [Example I-14]	1.23^[a]	–	100%	Eff. % (Uromyces appendiculatus; 100 ppm of active ingredient): 87%
OC(Cc1cccc(Cl)c1)(Cc1ccncc1Cl)Cn1cncn1 (stereo not drawn) [Example I-15]	2.27^[a]	–	98%	Eff. % (Septoria tritici; 100 ppm of active ingredient): 94%
OC(Cc1cc(Cl)cc(Cl)n1)(Cn1cncn1)C1(Cl)CC1 (stereo not drawn) [Example I-17]	2.76^[a]	–	100%	Eff. % (Uromyces appendiculatus; 100 ppm of active ingredient): 94%; Eff. % (Septoria tritici; 100 ppm of active ingredient): 97%

Structure (SMILES)	LogP (pH 2.7)	LogP [1]	Eff. % (Sphaerotheca fuliginea; 100 ppm of active ingredient)	further results
OC(Cc1cccc(Cl)c1)(Cc1ccncc1F)Cn1cncn1 (stereo not drawn) [Example I-22]	2.00^[a]	–	–	Eff. % (Septoria tritici; 100 ppm of active ingredient): 88%
OC(Cc1ccncc1F)(Cn1cncn1)c1cccnc1Cl (stereo not drawn) [Example I-23]	0.91^[a]	–	88%	Eff. % (Uromyces appendiculatus; 100 ppm of active ingredient): 92%
OC(Cc1ccncc1F)(Cn1cncn1)c1ccc(Cl)nc1 (stereo not drawn) [Example I-24]	0.99^[a]	–	94%	Eff. % (Uromyces appendiculatus; 100 ppm of active ingredient): 92%
OC(Cc1cc(Cl)nc(Cl)c1)(Cn1cncn1)C1(Cl)CC1 (stereo not drawn) [Example I-26]	2.54^[a]	–	100%	Eff. % (Septoria tritici; 100 ppm of active ingredient): 97%
OC(Cc1cc(Cc2ccc(Cl)c(Cl)n2)cc(Cl)n1)(Cn1cncn1)C1(Cl)CC1 (stereo not drawn) [Example I-32]	3.58^[a]	–	–	Eff. % (Puccinia recondita; 100 ppm of active ingredient): 75%
OC(Cc1ccnc(Cl)c1)(Cn1cncn1)c1cccnc1Cl (stereo not drawn) [Example I-34]	1.35^[a]	–	100%	–
OC(Cc1ccnc(Cl)c1)(Cc1ccccc1F)Cn1cncn1 (stereo not drawn) [Example I-35]	2.06^[a]	–	78%	–
OC(Cc1ccnc(Cl)c1)(Cn1cncn1)c1ccc(Cl)nc1 (stereo not drawn) [Example I-38]	1.38^[a]	–	100%	–
OC(Cc1cc(Cl)ncc1F)(Cn1cncn1)C1(F)CC1 (stereo not drawn) [Example I-41]	1.66^[a]	–	100%	Eff. % (Uromyces appendiculatus; 100 ppm of active ingredient): 94%
OC(Cc1cc(Cl)ncc1F)(Cn1cncn1)c1ccc(Cl)nc1 (stereo not drawn) [Example I-42]	1.60^[a]	–	98%	–
OC(Cc1cc(Cl)ncc1F)(Cn1cncn1)c1cccnc1Cl (stereo not drawn) [Example I-43]	1.57^[a]	–	100%	–
CC(CF)(CF)C(O)(Cc1cc(Cl)ncc1F)Cn1cncn1 (stereo not drawn) [Example I-44]	1.89^[a]	–	100%	Eff. % (Uromyces appendiculatus; 100 ppm of active ingredient): 94%
Cc1cccc(CC(O)(Cn2cncn2)C2(Cl)CC2)n1 (stereo not drawn) [Example I-48]	0.52^[a]	–	–	Eff. % (Uromyces appendiculatus; 500 ppm of active ingredient): 81%; Eff. % (Sphaerotheca fuliginea; 500 ppm of active ingredient): 83%
OC(Cc1cc(Oc2ccc(Cl)cc2)nnc1Cl)(Cn1cncn1)C1(Cl)CC1 (stereo not drawn) [Example I-55]	3.08^[a]	–	–	Eff. % (Uromyces appendiculatus; 500 ppm of active ingredient): 98%; Eff. % (Septoria tritici; 500 ppm of active ingredient): 100%; Eff. % (Sphaerotheca fuliginea; 500 ppm of active ingredient): 100%; Eff. % (Puccinia recondita; 500 ppm of active ingredient): 79%
OC(Cc1ccnc(Cl)c1F)(Cn1cncn1)c1cccnc1Cl (stereo not drawn) [Example I-59]	1.54^[a]	–	–	Eff. % (Uromyces appendiculatus; 500 ppm of active ingredient): 100%; Eff. % (Septoria tritici; 500 ppm of active ingredient): 100%; Eff. % (Sphaerotheca fuliginea; 500 ppm of active ingredient): 100%; Eff. % (Puccinia recondita; 500 ppm of active ingredient): 98%
Fc1cnc(Cl)cc1CC1(C2(Cl)CC2)CO1 (stereo not drawn) [XII-14]	–	3.15^[a]	–	–
CC(C)(Cl)C1(Cc2ccncc2Cl)CO1 (stereo not drawn) [XII-15]	–	2.57^[a]	–	–
Clc1cnccc1CC1(C2(Cl)CCCC2)CO1 (stereo not drawn) [XII-16]	–	3.42^[a]	–	–
Clc1cnccc1CC1(C2(Cl)CCCCC2)CO1 (stereo not drawn) [XII-17]	–	3.80^[a]	–	–
CC(CF)(CF)C1(Cc2ccncc2Cl)CO1 (stereo not drawn) [XII-18]	–	2.16^[a]	–	–

Structure (SMILES)	LogP (pH 2.7)	LogP [1]	Eff. % (Sphaerotheca fuliginea; 100 ppm of active ingredient)	further results
FC1(C2(Cc3ccncc3Cl)CO2)CC1 (stereo not drawn) [XII-19]	–	2.06^[a]	–	–
Fc1cc(CC2(C3(Cl)CC3)CO2)c(Cl)cn1 (stereo not drawn) [XII-20]	–	3.41^[a]	–	–
Fc1cc(CC2(C3(F)CC3)CO2)c(Cl)cn1 (stereo not drawn) [XII-21]	–	2.80^[a]	–	–
CC(CF)(CF)C1(Cc2cc(F)ncc2Cl)CO1 (stereo not drawn) [XII-22]	–	2.84^[a]	–	–
FC1(C2(Cc3cccnc3Cl)CO2)CC1 (stereo not drawn) [XII-23]	–	2.18^[a]	–	–
Clc1cc(CC2(C3(Cl)CC3)CO2)cc(Cl)n1 (stereo not drawn) [XII-24]	–	3.80^[a]	–	–
ClC1(C2(Cc3ccncn3)CO2)CC1 (stereo not drawn) [XII-25]	–	1.44^[a]	–	–
Fc1c(CC2(C3(Cl)CC3)CO2)ccnc1Cl (stereo not drawn) [XII-26]	–	3.11^[a]	–	–
CC(CF)(CF)C1(Cc2ccnc(Cl)c2F)CO1 (stereo not drawn) [XII-27]	–	2.65^[a]	–	–
Fc1c(CC2(C3(F)CC3)CO2)ccnc1Cl (stereo not drawn) [XII-28]	–	2.53^[a]	–	–
Clc1ccc(CC2(C3(Cl)CC3)CO2)c(Cl)n1 (stereo not drawn) [XII-30]	–	3.71^[a]	–	–
Fc1ncccc1CC1(C2(Cl)CC2)CO1 (stereo not drawn) [XII-31]	–	2.47^[a]	–	–
Clc1cncc(Cl)c1CC1(C2(Cl)CC2)CO1 (stereo not drawn) [XII-32]	–	3.68^[a]	–	–
CC(CF)(CF)C1(Cc2c(Cl)cncc2Cl)CO1 (stereo not drawn) [XII-33]	–	2.89^[a]	–	–
FC1(C2(Cc3c(Cl)cncc3Cl)CO2)CC1 (stereo not drawn) [XII-34]	–	2.93^[a]	–	–
FC(F)(F)c1cnccc1CC1(C2(Cl)CC2)CO1 (stereo not drawn) [XII-38]	–	3.04^[a]	–	–
Cc1cccc2cc(CC3(C4(Cl)CC4)CO3)c(Cl)nc12 (stereo not drawn) [XII-39]	–	4.90^[a]	–	–
Clc1ccnc(Cl)c1CC1(C2(Cl)CC2)CO1 (stereo not drawn) [XII-40]	–	3.53^[a]	–	–
Clc1cnc(Cl)c(CC2(C3(Cl)CC3)CO2)c1 (stereo not drawn) [XII-41]	–	3.87^[a]	–	–
Clc1cc(CC2(C3(Cl)CC3)CO2)c(Cl)cn1 (stereo not drawn) [XII-42]	–	3.70^[a]	–	–
